Assay results from patent publication US20140194506A1, “Use of Potassium Piperonyl Pentadienoate for Lowering Blood Lipid” (INNER MONGOLIA UNIVERSITY, priority 2011, published 2014).
Values joined by “and” are separate entries in the source; they are usually repeats but may differ in a detail not shown here. Equal entries are not always repeated.

Columns and labels:
[1] = test system: high lipid mode white rats; assay: Prophylactic blood lipid lowering in high lipid feed white rats (Example 2); format: in vivo, Wistar male white rats
Source text: High lipid feed formula: cholesterol 3%, lard 10%, sodium cholate 0.5%, basal feed: […] (formula: flour 17.14%, rice flour 8.57%, maize […], bran 21%, fish flour 1.71%, dairy salt 0.857%, vitamin 0.085%, bean material 17.14%).
60 Wistar White male rats of 150±10 g of body weight were fed with common standard feed for 5 days, and then divided into 6 groups randomly. Each group included 10 rats. Group I was a blank group, where the rats were fed with common standard feed. Group II was a high lipid feed mode control group. Group III was a Simvastatin 10 mg/kg group. Group IV was a GB-O group. Group V was a GB-H group. Group VI was a GB-K group. High lipid feed mode control group were fed with high lipid feed together with distilled water. Groups III, IV, V, and VI were fed with high lipid feed together with required simvastatin, GB-O, GB-H, and GB-K suspensions (formulated by grinding with 0.5% sodium […] CMC-Na) respectively. The dosing amount was 0.046 mmol/kg, and the amount of high lipid feed was 20 g per day for each rat. The grouping and the dosing amount for each group can be found in table 1.
(§1) The body weights of white rats were determined and recorded every day. The rats in each group were dosed basing on its body weight by feeding for 14 days at 22° C. of room temperature and 40-50% of relative humidity. On the 14th day, after fasting and freely receiving water for 16 hours, its blood was sampled from aorta, placed for 30 min to blood coagulate, and centrifugated for 15 min at 3000 r/min to separate serum. The values of serum total cholesterol (TC), and triglyceride (TG) were determined on an automatic analyzer using enzymatic colorimetry, the value of high density lipoprotein cholesterol (HDL) was determined using a phosphotungstic acid-Mg precipitation method, and the value of low density lipoprotein cholesterol (LDL) was determined using the polyvinyl sulfate precipitation method.
(§2) All data were treated statistically, and were presented as means±standard deviations (x±s). The significance of difference was judged by T test. The calculation of p value was obtained by comparing the high lipid mode group with the blank control group, and comparing other test drug groups with the high lipid mode group.
(§3) The reaction temperature was 37° C. The cholesterol ester in serum was first hydrolyzed into free cholesterol (FC) and fatty acid with cholesterol ester hydrolase (CEH). Then, all FC in serum was oxidized into ch-4-en-3-one and H2O2 with cholesterol oxidase (COD). The resulting H2O2 was reacted with 4-aminoantipyrine (4-AAP) and 4-chlorophenol in the presence of peroxidase (POD) (Trinder reaction), to yield red quinine imine, which was calorimetrically tested at a 500 nm wavelength.
The reaction temperature was 37° C. The triglyceride ire serum was first hydrolyzed into glycerol and fatty acid with lipoprotein lipase (LPL). The resulting glycerol was reacted with ATP in the presence of glycerol kinase (GK), to produce glycerol-3-phosphate and ADP. The resulting glycerol-3-phosphate was oxidized into dihydroxyacetone phosphate and H2O2 with oxygen in the presence of glycerol phosphate oxidase (GPO). The resulting H2O2 was reacted with 4-aminoantipyrine (4-AAP) and 4-chlorophenol in the presence of peroxidase (POD) (Trinder reaction), to yield red quinine imine, which was colorimetrically determined at a 500 nm wavelength.
The LDL in serum was precipitated using PVS. The serum TC and the Ch in the resulting supernatant were determined using the enzymatic methods described hereinabove, and the LDL-C was calculated by subtracting the Ch from the serum TC. The polyethylene glycol monoether (PEGME) was added in a suitable amount in order to facilitate the precipitation of LDL. […]

[2] = test system: high lipid mode white rats; assay: Therapeutic blood lipid lowering in hyperlipoidemia mode white rats (Example 3); format: in vivo, Wistar male white rats
Source text: High lipid feed formula: cholesterol 3%, lard 10%, sodium cholate 0.5%, basal feed: 86.5% (formula: flour 17.14%, rice flour 8.57%, maize 17.14%, bran 21%, fish flour 1.71%, dairy salt 0.857%, vitamin 0.085%, bean material 17.14%).
72 Wistar white male rats of 170±10 g of body weight were divided into 6 groups randomly and numbered. Each group included 12 rats. The rats were fed with common standard feed under experimental conditions and observed for 7 days, and its blood was sampled from tail for testing serum total cholesterol (TC). […] From the 8th day, the group I was set as a blank group, and was fed with common standard feed. Other groups were fed with high lipid feed for 8 days in a row, and the blood was sampled from tail on the next day for testing TC. […] The rats then were divided into 5 groups randomly (see table 12) according to TC levels. Each group included 10 rats (10 rats who were unsuccessful blood lipid modes were discarded). The rats were ted with high lipid teed continuously. Group was a high lipid feed mode control group. Group III was a Simvastatin 10 mg/kg group. Group IV was a GB-O group. Group V was a GB-H group. Group VI was a GB-K group. The high lipid feed mode control group was fed with high lipid feed together with distilled water. Groups III, IV, V, and VI were fed with high lipid feed together with required simvastatin, GB-O, GB-H, and GB-K suspensions (formulated by grinding with 0.5% sodium carboxymethycellulose CMC-Na) respectively. The dosing amount was 0.046 mmol/kg, and the amount of high lipid feed was 20 g per day for each rat. The grouping and the dosing amount for each group can be found in table 13.
as §1, with “rats for” for “rats in”, “dosed basing,” for “dosed basing”, “hours, the” for “hours, its”, “coagulate,” for “coagulate, and”, “using a” for “using the”
as §2, with “and are” for “and were”, “as means standard” for “as means±standard”
as §3, with “hydrolase (CEH.)” for “hydrolase (CEH).”, “and H2O2)” for “and H2O2”, “resulting H2O2,” for “resulting H2O2”, “was colarimetrically” for “was calorimetrically”, “at” for “at a”
The reaction temperature was 37° C. The triglyceride in serum was first hydrolyzed into glycerol and fatty acid with lipoprotein lipase (LPL). The resulting glycerol was reacted with ATP in the presence of glycerol kinase (GK), to produce glycerol-3-phosphate and ADP. The resulting glycerol-3-phosphate was oxidized into dihydroxyacetone phosphate and H2O2 with oxygen in the presence of glycerol phosphate oxidase (GPO). […]

[3] = group mean n=10, 15th day after administration
[4] = in comparison with group II (high lipid mode control group)
[5] = rats No. 1-10, 0.046 mmol/kg (Simvastatin 10 mg/kg), 15th day after administration

O=C(O)/C=C/C=C/c1ccc2c(c1)OCO2 [GB-H, piperonyl pentadienoic acid]
Total cholesterol value ([1]; Table 6, mean ± standard deviation, n=10): 13.23 ± 3.49
Triglyceride value ([1]; Table 7, mean ± standard deviation, n=10): 1.31 ± 0.3219 mmol/L
Low density lipoprotein cholesterol ([1]; Table 8, mean ± standard deviation, n=10): 4.298 ± 1.0578 mmol/L
High density lipoprotein cholesterol ([1]; Table 9, mean ± standard deviation, n=10): 0.325 ± 0.0902 mmol/L
serum total cholesterol (TC) contents, Mean ([1]; group mean n=10, 0.046 mmol/kg (Simvastatin 10 mg/kg), 15th day after administration): 13.23 mmol/L
serum high density lipoprotein cholesterol (HDL) contents, Mean [1, 3]: 0.32 mmol/L
serum low density lipoprotein cholesterol (LDL) contents, Mean [1, 3]: 4.29 mmol/L
serum triglyceride (TG) contents, Mean [1, 3]: 1.31 mmol/L
effect on serum low density lipoprotein cholesterol, in words [1, 4]: show the effect of lowering serum low density lipoprotein cholesterol value
effect on serum total cholesterol, in words [1, 4]: extremely significant differences
effect on serum triglyceride, in words ([1]; in comparison with group II (high lipid mode control group), listed as GB-1-1): extremely significant differences
serum high density lipoprotein cholesterol (HDL) contents, individual rats [1, 5]: 0.26 mmol/L (2×) and 0.48 mmol/L and 0.18 mmol/L and 0.35 mmol/L and 0.28 mmol/L and 0.42 mmol/L and 0.41 mmol/L and 0.30 mmol/L and 0.31 mmol/L
serum low density lipoprotein cholesterol (LDL) contents, individual rats [1, 5]: 4.53 mmol/L and 5.85 mmol/L and 4.24 mmol/L and 2.74 mmol/L and 4.19 mmol/L and 2.68 mmol/L and 5.09 mmol/L and 4.86 mmol/L and 3.51 mmol/L and 5.29 mmol/L
serum triglyceride (TG) contents, individual rats [1, 5]: 1.15 mmol/L and 1.64 mmol/L and 1.71 mmol/L and 0.91 mmol/L and 0.88 mmol/L and 1.06 mmol/L and 1.58 mmol/L and 1.23 mmol/L and 1.70 mmol/L and 1.30 mmol/L
serum total cholesterol (TC) contents, individual rats ([1]; rats No. 1-10, high lipid feed plus drug 14 days, 0.046 mmol/kg (Simvastatin 10 mg/kg), 15th day after administration): 16.64 mmol/L and 14.72 mmol/L and 10.11 mmol/L and 13.12 mmol/L and 9.56 mmol/L and 7.83 mmol/L and 12.22 mmol/L and 14.24 mmol/L and 14.28 mmol/L and 19.58 mmol/L
Total cholesterol value ([2]; Table 18, mean ± standard deviation, n=10): 11.09 ± 1.82
Triglyceride value ([2]; Table 19, mean ± standard deviation, n=10): 2.55 ± 0.42 mmol/L
Low density lipoprotein cholesterol ([2]; Table 20, mean ± standard deviation, n=10): 3.34 ± 1.30 mmol/L
High density lipoprotein cholesterol ([2]; Table 21, mean ± standard deviation, n=10): 0.67 ± 0.21 mmol/L
serum high density lipoprotein cholesterol (HDL) contents, Mean [2, 3]: 0.67 mmol/L
serum low density lipoprotein cholesterol (LDL) contents, Mean [2, 3]: 3.34 mmol/L
serum total cholesterol (TC) contents, Mean [2, 3]: 11.09 mmol/L
serum triglyceride (TG) contents, Mean [2, 3]: 2.55 mmol/L
effect on serum high density lipoprotein cholesterol, in words [2, 4]: show the effect of some extent, of increasing high density lipoprotein cholesterol
effect on serum low density lipoprotein cholesterol, in words [2, 4]: significant differences
effect on serum total cholesterol, in words [2, 4]: extremely significant differences
effect on serum triglyceride, in words [2, 4]: extremely significant differences
serum high density lipoprotein cholesterol (HDL) contents, individual rats [2, 5]: 0.67 mmol/L and 0.85 mmol/L and 0.72 mmol/L and 0.77 mmol/L and 0.37 mmol/L and 0.46 mmol/L and 0.82 mmol/L and 0.73 mmol/L and 1.02 mmol/L and 0.35 mmol/L
serum low density lipoprotein cholesterol (LDL) contents, individual rats [2, 5]: 2.22 mmol/L and 5.37 mmol/L (2×) and 2.03 mmol/L and 3.35 mmol/L and 3.61 mmol/L and 2.68 mmol/L and 2.09 mmol/L and 4.36 mmol/L and 2.34 mmol/L
serum triglyceride (TG) contents, individual rats [2, 5]: 1.97 mmol/L and 2.08 mmol/L and 2.37 mmol/L and 2.61 mmol/L (2×) and 2.82 mmol/L and 2.47 mmol/L and 3.04 mmol/L and 2.23 mmol/L and 3.31 mmol/L
serum total cholesterol (TC) contents, individual rats ([2]; rats No. 1-10, hyperlipoidemia mode, drug 14 days, 0.046 mmol/kg (Simvastatin 10 mg/kg), 15th day after administration): 12.34 mmol/L and 9.37 mmol/L and 12.03 mmol/L and 10.25 mmol/L and 10.37 mmol/L and 9.36 mmol/L (2×) and 11.28 mmol/L (2×) and 15.24 mmol/L
